In brackets after ≈: the same amount, converted by molar mass.
What was measured:
physchem = settings: phosphate buffered saline, pH 7.4, solubility
Description: Solubility of the compound in phosphate buffered saline at pH 7.4 after 1 hr by CLND method

[1] = Distribution coefficient, log D of the compound at pH 7.4 by chromatographic method; format: physicochemical; settings: octanol/water
[2] = target: T1, ATPase family AAA domain-containing protein 2 (Homo sapiens, UniProt Q6PL18)
T1 sequence (Q6PL18 whole entry): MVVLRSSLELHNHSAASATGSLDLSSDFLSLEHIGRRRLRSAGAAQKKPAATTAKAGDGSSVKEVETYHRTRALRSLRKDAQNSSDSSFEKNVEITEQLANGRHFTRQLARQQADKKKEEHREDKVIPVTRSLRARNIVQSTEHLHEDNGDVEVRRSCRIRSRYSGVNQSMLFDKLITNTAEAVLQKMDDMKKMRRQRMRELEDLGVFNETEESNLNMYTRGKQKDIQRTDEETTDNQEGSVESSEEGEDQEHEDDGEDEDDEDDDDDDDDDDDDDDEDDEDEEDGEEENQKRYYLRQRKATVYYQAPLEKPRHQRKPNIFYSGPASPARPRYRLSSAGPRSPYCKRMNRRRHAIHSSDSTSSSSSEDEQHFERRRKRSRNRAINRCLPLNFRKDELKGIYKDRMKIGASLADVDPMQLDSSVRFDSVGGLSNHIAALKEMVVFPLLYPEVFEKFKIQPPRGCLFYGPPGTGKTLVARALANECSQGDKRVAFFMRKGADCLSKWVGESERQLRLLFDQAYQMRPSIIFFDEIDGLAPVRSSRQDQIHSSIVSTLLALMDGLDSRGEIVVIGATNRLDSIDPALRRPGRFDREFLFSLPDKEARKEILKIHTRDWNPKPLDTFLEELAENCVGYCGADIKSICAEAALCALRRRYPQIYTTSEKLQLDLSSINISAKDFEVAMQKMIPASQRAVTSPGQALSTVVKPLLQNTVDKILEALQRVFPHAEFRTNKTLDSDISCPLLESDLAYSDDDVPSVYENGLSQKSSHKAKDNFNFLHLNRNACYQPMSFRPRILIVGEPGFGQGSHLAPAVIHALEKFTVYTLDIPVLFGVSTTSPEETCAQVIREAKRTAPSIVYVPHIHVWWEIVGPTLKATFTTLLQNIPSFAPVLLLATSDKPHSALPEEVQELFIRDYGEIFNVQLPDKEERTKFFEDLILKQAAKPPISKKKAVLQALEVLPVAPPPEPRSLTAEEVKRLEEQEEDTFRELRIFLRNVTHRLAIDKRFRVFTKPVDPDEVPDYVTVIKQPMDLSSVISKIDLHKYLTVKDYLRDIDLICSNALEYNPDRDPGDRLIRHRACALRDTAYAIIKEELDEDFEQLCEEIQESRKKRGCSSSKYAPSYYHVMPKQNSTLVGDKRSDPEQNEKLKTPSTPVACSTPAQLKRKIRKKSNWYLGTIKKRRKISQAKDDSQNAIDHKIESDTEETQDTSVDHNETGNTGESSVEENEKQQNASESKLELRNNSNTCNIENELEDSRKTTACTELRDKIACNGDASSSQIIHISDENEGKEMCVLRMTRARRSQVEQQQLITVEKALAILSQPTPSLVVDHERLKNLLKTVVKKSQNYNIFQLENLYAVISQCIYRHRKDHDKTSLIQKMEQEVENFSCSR

[3] = target: T1, ATPase family AAA domain-containing protein 2; remark: listed apart in the source
Description: Displacement of histone H4 peptide from FLAG-6His-Tev-ATAD2 (981 to 1121) (unknown origin) expressed in Escherichia coli BL21 (DE3) after 30 mins by TR-FRET analysis relative to control

[4] = Permeability across phosphatidyl choline membrane at pH 7.4 after 3 hrs by HPLC with UV detection method; format: ADME; settings: not told, read-out: permeability
[5] = target: Bromodomain-containing protein 4 (Homo sapiens, UniProt O60885, Y390A)

solubility kinetic at 1 h (physchem) [µM] | chromatographic logD [1] | IC50 [2] [µM] | IC50 [3] [µM] | Papp at 3 h [4] [×10⁻⁶ cm/s] | IC50 [5] [µM] | logD [1] | Compound
196 (≈ 90.5 µg/mL) | 4.2 | – | – | – | – | – | Cc1cncc(-c2cnc(N[C@H]3CCNC[C@@H]3OCC3CCCCC3)c3[nH]c(=O)c(C)cc23)c1
≥ 269 | – | 0.1 | 0.126 | < 0.3 | 7.94 | – | COc1cncc(-c2cnc(N[C@@H]3CCNC[C@H]3OCC3CCS(=O)(=O)CC3)c3[nH]c(=O)c(C)cc23)c1
207 (≈ 65.5 µg/mL) | 1.8 | – | 63.1 | – | 25.1 | – | Cc1cc2ccnc(N[C@@H]3CCNC[C@H]3OC(C)C)c2[nH]c1=O (racemic)
140 (≈ 51.9 µg/mL) | 3.3 | – | – | – | 12.6 | – | Cc1cc2ccnc(N[C@H]3CCNC[C@@H]3OCC3CCCCC3)c2[nH]c1=O
≥ 414 | – | 0.794 | 1 | < 0.3 | 50.1 | – | Cc1cc2c(-c3cncnc3)cnc(N[C@@H]3CCNC[C@H]3OCC3CCOCC3)c2[nH]c1=O
≥ 280 | 1.8 | – | 25.1 | – | 6.31 | – | CCCO[C@@H]1CNCC[C@H]1Nc1nccc2cc(C)c(=O)[nH]c12 (racemic)
30 (≈ 16.2 µg/mL) | – | 0.0631 | 0.1 | < 0.3 | 25.1 | – | Cc1cncc(-c2cnc(N[C@@H]3CCNC[C@H]3OC[C@H]3C[C@@H](C)S(=O)(=O)[C@@H](C)C3)c3[nH]c(=O)c(C)cc23)c1
≥ 392 | 1.2 | – | 7.94 | – | 10 | – | CC(=O)N1CCC(CO[C@@H]2CNCC[C@H]2Nc2nccc3cc(C)c(=O)[nH]c23)CC1 (racemic)
≥ 323 | 0.7 | – | 5.01 | – | 12.6 | – | Cc1cc2ccnc(N[C@@H]3CCNC[C@H]3OC[C@H]3CC[C@H](O)CC3)c2[nH]c1=O (racemic)
254 (≈ 118 µg/mL) | – | 0.251 | 0.316 | 3.25 | 10 | – | Cc1cncc(-c2cnc(N[C@@H]3CCNC[C@H]3OCC3CCOCC3)c3[nH]c(=O)c(C)cc23)c1
≥ 316 | 4 | – | 2 | – | 5.01 | – | Cc1cc2ccnc(N[C@@H]3CCNC[C@H]3OCC3CCCCCC3)c2[nH]c1=O (racemic)
≥ 309 | 1 | – | – | – | 6.31 | – | Cc1cc2ccnc(N[C@@H]3CCNC[C@H]3OCC3CCS(=O)(=O)CC3)c2[nH]c1=O (racemic)
≥ 327 | 1.5 | – | – | – | 25.1 | – | Cc1cc2ccnc(N[C@@H]3CCNC[C@H]3OCCC3CCOCC3)c2[nH]c1=O (racemic)
298 (≈ 111 µg/mL) | 1.7 | – | – | – | 10 | – | Cc1cc2ccnc(N[C@@H]3CCNC[C@H]3OCC3CCOCC3)c2[nH]c1=O (racemic)
285 (≈ 106 µg/mL) | 3.3 | – | – | – | 5.01 | – | Cc1cc2ccnc(N[C@@H]3CCNC[C@H]3OCC3CCCCC3)c2[nH]c1=O (racemic)
≥ 418 | – | 0.316 | 0.251 | 3.35 | 7.94 | – | COc1cncc(-c2cnc(N[C@@H]3CCNC[C@H]3OCC3CCOCC3)c3[nH]c(=O)c(C)cc23)c1
– | – | – | – | < 1 | – | 1.5 | Cc1cc2ccnc(N[C@@H]3CCNC[C@H]3OCC3CCOCC3)c2[nH]c1=O
– | – | – | – | 13 | 3.98 | – | Cc1cc2ccnc(N[C@@H]3CCNC[C@H]3OCC3CCCCC3)c2[nH]c1=O
≥ 465 | – | 0.2 | 0.251 | < 0.3 | 6.31 | – | Cc1cc2c(-c3cccnc3)cnc(N[C@@H]3CCNC[C@H]3OCC3CCOCC3)c2[nH]c1=O
≥ 306 | 0.9 | – | 10 | – | 6.31 | – | CO[C@@H]1CNCC[C@H]1Nc1nccc2cc(C)c(=O)[nH]c12
≥ 275 | 3.1 | – | 7.94 | – | 10 | – | Cc1cc2ccnc(N[C@@H]3CCNC[C@H]3OCC3CCCC3)c2[nH]c1=O (racemic)
323 (≈ 170 µg/mL) | – | 0.0501 | 0.0794 | < 0.3 | 10 | – | CCc1cc2c(-c3cncc(C)c3)cnc(N[C@@H]3CCNC[C@H]3OCC3CCS(=O)(=O)CC3)c2[nH]c1=O
– | – | – | – | < 0.65 | 12.6 | – | Cc1cc2ccnc(N[C@@H]3CCNC[C@H]3OCC3CCS(=O)(=O)CC3)c2[nH]c1=O
≥ 352 | 1.5 | – | – | – | 12.6 | – | Cc1cc2ccnc(N[C@H]3CCNC[C@@H]3OCC3CCOCC3)c2[nH]c1=O
≥ 531 | 1.1 | – | – | – | 5.01 | – | Cc1cc2ccnc(N[C@H]3CCNC[C@@H]3OCC3CCS(=O)(=O)CC3)c2[nH]c1=O
494 (≈ 229 µg/mL) | 2.2 | – | – | – | – | – | Cc1cc2c(-c3cncc(N)c3)cnc(N[C@@H]3CCNC[C@H]3OCC3CCCCC3)c2[nH]c1=O
≥ 290 | 2.3 | – | – | – | 6.31 | – | Cc1cc2ccnc(N[C@@H]3CCNC[C@H]3OCC(C)C)c2[nH]c1=O (racemic)
≥ 315 | – | 0.1 | 0.126 | < 0.3 | 10 | – | Cc1cc2c(-c3cccnc3)cnc(N[C@@H]3CCNC[C@H]3OCC3CCS(=O)(=O)CC3)c2[nH]c1=O
217 (≈ 111 µg/mL) | – | – | – | < 0.3 | – | – | Cc1cncc(-c2ccc(N[C@@H]3CCNC[C@H]3OCC3CCS(=O)(=O)CC3)c3[nH]c(=O)c(C)cc23)c1 (racemic)
≥ 328 | 1 | – | 5.01 | – | 12.6 | – | Cc1cc2ccnc(N[C@@H]3CCNC[C@H]3OC[C@@H]3CCS(=O)(=O)C3)c2[nH]c1=O (racemic)
